Earlier results as cited in patent publication US20250067661A1, “SYSTEM FOR BODY FLUID ISOMER ANALYSIS” (KONINKLIJKE PHILIPS N.V., priority 2021, published 2025).

Conditions: intravenous solution containing a racemic mixture

maximum increase in plasma concentration [fold]	Structure (SMILES)
≤ 13	C[C@@H](O)C(=O)O [D-lactate]
≤ 2	C[C@H](O)C(=O)O [L-lactate]
